Experimental data: patent US6239284A, “Aromatic tetracyclic compounds of the retinoid type method for preparing and use” (priority 1997, dated 2001)
Entries after “also recorded” stand apart in the source; their conditions may differ.

Assays:
[1] = system: RARα; test: Transactivation of chimerical receptor RARα-ERcassette, transient transfection of HeLa cells; type: cell-based; conditions: for RAR-ERcassette RARα transactivation (%): 100% = TTNPB 10^-8 M
Excerpt: (§1) The HeLa cells are co-transfected by a plasmid which codes for a retinoic receptor in which the C domain of bonding to the DNA is substituted by that of the receptor to RE estrogens, and a plasmid which places the expression of the luciferase under the control of an ERE (Element of Response to Estrogens). The expressed chimerical receptors are designated as RARα-ERcassette, RARβ-ERcassette, RARγ-ERcassette and RXRα-ERcassette. The A, B, D, E and F regions of the natural receptor are preserved as well as the transcriptional co-operation between the activation domains AF-1 and AF-2. These transitory transfection experiments follow the method of co-precipitation to calcium phosphate. The HeLa cells are co-transfected by […] of plasmid coding for the chimerical receptor, […] of reporter plasmid and […] of expression vector CMV-β-galactosidase used as an internal control of transfection. 24 hours after the transfection, the cells are incubated for 16 hours with the different effectors.
(§2) In this type of chimerical receptor, the C domain of bonding to the DNA of RAR is substituted by that of the receptor to the RE estrogens. The protein obtained is close to the natural RAR receptor and preserves the transcriptional properties of the AF-1 and AF-2 domains. It modulates the transcription by means of an ERE. This RAR-ERcassette model allows one to observe a transcriptional response to a more physiological ligand.
(§3) The study of the selectivity of the compounds was carried out with the RAR-ERcassette chimerical receptors model.
(§4) On one and the same line in the Table, the cis (Z) compound represents the isomeric structure of the trans (E) compound.

[2] = system: RARγ; test: Transactivation of chimerical receptor RARγ-ERcassette, transient transfection of HeLa cells; type: cell-based; conditions: -6 log M (1 μM); 100% = TTNPB 10^-8 M
Excerpt: as §1, §2, §3, §4

[3] = system: RAR; test: RAR-ERcassette model, specificity profile (transient transfection of HeLa cells); type: cell-based
Excerpt: as §1, §2, §3

[4] = system: RARE; test: HRLN transactivation (stably transfected HeLa, RARE3-tk-Luc, endogenic receptors); type: cell-based
Excerpt: (§5) The cellular lineages HRLN and HRL+N allow one to study the activation of an RARE by endogenic receptors using ligands at physiological concentrations. These lineages derive from HeLa cells transfected in a stable fashion by a reporter gene which places the expression of the gene of the luciferase under the control of a nuclear response element RARE (RARE3 -tk-Luc). The HeLa cells express all the known receptors of the retinoic acid (RARα,β,γ and RXRα,β,γ) with a predominance of RARα and RXRα. The response element RARE used for the HRLN cells corresponds to the sequence of the natural gene of the RARβ receptor (GGTTCAnnnnnAGTTCA). The HRL+N cells comprise the sequence GAGTGAnnnnnCGGTGA.

[5] = system: RARβ; test: Transactivation of chimerical receptor RARβ-ERcassette, transient transfection of HeLa cells; type: cell-based; conditions: -6 log M (1 μM); 100% = TTNPB 10^-8 M
Excerpt: as §1, §2, §3, §4

[6] = system: ERE; test: Anti-estrogenic effect, MELN cellular lineage (MCF-7 with ERE-βGlob-Luc) activated by estradiol; type: cell-based, human; conditions: for inhibition at 1 µM: -6 log M (10^-6 M), 10^-9 M estradiol
Description: MCF-7 cells express RARα,γ and RXRα. The transfection of MCF-7 cells by an estrogen-dependent gene (ERE-βGlob-Luc) has permitted the establishment of the MELN cellular lineage, used to determine the anti-oestrogenic activity of the retinoids. These cells contain the gene of the luciferase under the transcriptional control of the promoter of the βGlobine and of the response element ERE isolated from the gene of chicken vitelogenine A2. The experiments are carried out with MELN cells activated by 10^-9 M estradiol. The level of base activity of the MELN cells is obtained with the anti-estrogen 1 μM 4-OH-tamoxifen (hydroxytamoxifen).
The effect of the products tested on the cells activated by 10^-9 M estradiol is expressed as a percentage, the level of base activity being deducted.

[7] = system: AP-1; test: Anti-AP-1 effect, MTLN cellular lineage (MCF-7 with (TRE)3-tk-Luc) activated by TPA; type: cell-based, human
Description: The anti-factor AP-1 transrepressor effect of retinoids is determined using the MTLN lineage, coming from MCF-7 cells transfected in a stable fashion by a vector p(TRE)3 -tk-Luc which places the expression of the gene of luciferase under the control of […]. TPA activates the AP-1 complex formed from proteins of the family of nuclear proto-oncogenes (c-Jun and c-Fos). […] The experiments ware made with the MTLN cells activated by 10^-7 M TPA.
The effect of the compounds on the MTLN cells activated by 10^-7 M TPA is expressed as a percentage. […] The inhibitive properties of the products are calculated after deduction of the base activity of the cells. The percentages reported correspond to a range of inhibitions determined from several experiments.

[8] = system: RARE; test: HRL+N transactivation (stably transfected HeLa, RARE reporter, endogenic receptors); type: cell-based; conditions: Homo sapiens, HeLa; Table 12; 1 μM
Excerpt: as §5
The HRL+N lineage allows one to visualize a co-activation of the RAR and RXR receptors at the level of the RAR-RXR hetero-dimer.

[9] = system: T-47D cells; test: Anti-proliferation effect, estrogen-induced growth of T-47D cells; type: cell-based, human; conditions: Homo sapiens, T47D, 168 h, read-out: T-47D IC50 (growth inhibition by 50%)
Description: So as to test the anti-proliferation effect of the retinoids, growth experiments under oestrogenic conditions were carried out on cells MCF-7 and T-47D. These are the human estrogen-dependent mammary cancer cells which express the receptor to RE estrogens. The effect of the molecules is evaluated after 7 days of culture in oestrogenic conditions (estradiol 10^-9 M) by dosing the cellular DNA. The cells are distributed in 24 well plates at a density of 2×10^4 cells per well. The tests with the different retinoids are carried out in triplicate and the culture medium is changed after 4 days of growth.
The effect of the retinoids on the growth of MCF-7 and T-47D cells is evaluated after 7 days of culture in the presence of 10^-9 M estradiol by dosing the cellular DNA.

[10] = Homo sapiens, read-out: Anti-oestrogenic effect, Inhibition (%)

| SMILES | RAR-ERcassette RARα transactivation (%) ([1]; -6 log M (1 μM)) | RAR-ERcassette RARγ transactivation (%) [2] [%] | RAR-ERcassette profile in words [3] | HRLN transactivation in words [4] | activation at 1 µM ([4]; Homo sapiens, HeLa) [%] | RAR-ERcassette RARβ transactivation (%) [5] [%] | inhibition at 1 µM [6, 10] [%] | other results |
| --- | --- | --- | --- | --- | --- | --- | --- | --- |
| Cc1cc2c(cc1/C=C1\CCc3cc(C(=O)O)ccc31)C(C)(C)CCC2(C)C [CB40341, (E) 1-[2-(5,6,7,8-tetrahydro-3,5,5,8,8-pentamethyl)naphthalenylmethylene]-2,3-dihydro-1H-indene-5-carboxylic acid] | 14 | 79 | RARβ,γ specificity; also recorded: RARβ,γ selectivity | partial transactivation | 30 | 75 | – | RARα transactivation (RAR-ERcassette) in words [1]: inactive on RARα |
| CC1(C)CCC(C)(C)c2cc(/C=C3\CCc4cc(C(=O)O)ccc43)ccc21 [CB78937, (E) 1-[2-(5,6,7,8-tetrahydro-5,5,8,8-tetramethyl)naphthalenylmethylene]-2,3-dihydro-1H-indene-5-carboxylic acid] | 18 | 93 | RARβ,γ specificity; also recorded: RARβ,γ selectivity | partial transactivation | 25 | 65 | 4 | RARα transactivation (RAR-ERcassette) in words [1]: inactive on RARα |
| Cc1cc2c(cc1/C=C1\CCc3cc(-c4nnn[nH]4)ccc31)C(C)(C)CCC2(C)C [CB23804, (E) 5-[1-[2-(5,6,7,8-tetrahydro-3,5,5,8,8-pentamethyl)naphthalenylmethylene]-2,3-dihydro-1H-indenyl]-1H-tetrazole] | 4 | 19 | weakly active | slightly active | 15 | 28 | 0 | – |
| CCCCCCCOc1cc2c(cc1/C(C)=C/c1ccc(C(=O)O)cc1)C(C)(C)CCS2(=O)=O [Ro 41-5253] | – | – | – | totally abolishes the response of Am580 and partially abolishes that of TTNPB | – | – | – | Anti-AP-1 effect (MTLN) in words [7]: does not allow the inhibition induced by TTNPB to be totally lifted; Anti-estrogenic effect (MELN) in words [6]: raises the inhibitor effect of Am580 and also of TTNPB |
| CC1(C)CCC(C)(C)c2cc(/C=C3/CCc4cc(-c5nnn[nH]5)ccc43)ccc21 [CB94083, (Z) 5-[1-[2-(5,6,7,8-tetrahydro-5,5,8,8-tetramethyl)naphthalenylmethylene]-2,3-dihydro-1H-indenyl]-1H-tetrazole] | 4 | 18 | weakly active | – | – | 14 | – | activation at 1 µM [8]: 13% |
| CC1(C)CCC(C)(C)c2cc(/C=C3/CCCc4cc(C(=O)O)ccc43)ccc21 [CB80830, (Z) 1-[2-(5,6,7,8-tetrahydro-5,5,8,8-tetramethyl)naphthalenylmethylene]-1,2,3,4-tetrahydronaphthalene-6-carboxylic acid] | 2 | 1 | The same result is observed | inactive | 4 | 0 | 2 | – |
| CC1(C)CCC(C)(C)c2cc(/C=C3\CCc4cc(-c5nnn[nH]5)ccc43)ccc21 [CB99811, (E) 5-[1-[2-(5,6,7,8-tetrahydro-5,5,8,8-tetramethyl)naphthalenylmethylene]-2,3,-dihydro-1H-indenyl]-1H-tetrazole] | 3 | 14 | weakly active | – | – | 11 | – | – |
| CC1Cc2cc(C(=O)O)ccc2/C1=C/c1ccc2c(c1)C(C)(C)CCC2(C)C (stereo not shown) [CB52809, (E) 1-[2-(5,6,7,8-tetrahydro-5,5,8,8-tetramethyl)naphthalenylmethylene]-2,3-dihydro-2-methyl-1H-indene-5-carboxylic acid] | 5 | 13 | – | – | 0 | 0 | 0 | – |
| CC1(C)CCC(C)(C)c2cc(/C=C3\CCCc4cc(C(=O)O)ccc43)ccc21 [CB66049, (E) 1-[2-(5,6,7,8-tetrahydro-5,5,8,8-tetramethyl)naphthalenylmethylene]-1,2,3,4-tetrahydronaphthalene-6-carboxylic acid] | 0 | 8 | The same result is observed | inactive | 0 | 0 | – | – |
| CC1(C)CCC(C)(C)c2cc(/C=C3/CCc4cc(C(=O)O)ccc43)ccc21 [CB27871] | 29 | 67 | – | partial transactivation | 27 | 36 | – | – |
| CC1=C(/C=C/C(C)=C\C=C\C(C)=C\C(=O)O)C(C)(C)CCC1 [9-cis RA, reference compound] | 348 | – | induce an over-expression of luciferase in comparison to the induction brought about by a synthetic compound (TTNPB) | dose-dependent activation | – | – | – | RAR-ERcassette RARα transactivation (%) ([1]; -7 log M): 187%; RAR-ERcassette RARα transactivation (%) ([1]; -8 log M): 60%; RAR-ERcassette RARα transactivation (%) ([1]; -9 log M): 7%; Emax ([4]; Homo sapiens, HeLa, read-out: HRLN transactivation E max %): 196%; Anti-AP-1 effect, Inhibition (%) ([7]; -8 log M, 10^-7 M TPA, range of several experiments): 30-37%; inhibition at 0.1 µM [6, 10]: 35%; IC50 [9]: 25.1 ± 1.4 nM |
